How the values were obtained:
[1] = target: Adenosine receptor A1 (Homo sapiens) (UniProt P30542); experiment: Inhibitory activity against Adenosine A1 receptor using [3H]DPCPX at […] (M)
[2] = target: Beta-2 adrenergic receptor (Homo sapiens) (UniProt P07550); experiment: Inhibitory activity against Beta-2 adrenergic receptor using [3H]CGP-12177 at […] (M)
[3] = target: T1, 5-hydroxytryptamine receptor 1A (Homo sapiens, UniProt P08908); experiment: Binding affinity for 5-hydroxytryptamine 1A receptor
T1 sequence (P08908 whole entry): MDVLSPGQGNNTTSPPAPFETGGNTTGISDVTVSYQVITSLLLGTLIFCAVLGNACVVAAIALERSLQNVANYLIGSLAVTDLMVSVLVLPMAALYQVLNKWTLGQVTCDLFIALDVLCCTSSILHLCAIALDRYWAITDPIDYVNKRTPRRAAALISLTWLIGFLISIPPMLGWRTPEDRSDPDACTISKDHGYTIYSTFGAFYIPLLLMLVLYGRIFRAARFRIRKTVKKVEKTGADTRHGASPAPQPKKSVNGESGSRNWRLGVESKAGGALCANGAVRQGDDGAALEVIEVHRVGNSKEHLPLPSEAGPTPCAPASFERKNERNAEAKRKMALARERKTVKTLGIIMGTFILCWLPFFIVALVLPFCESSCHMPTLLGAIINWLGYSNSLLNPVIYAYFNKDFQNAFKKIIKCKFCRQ

[4] = target: Muscarinic acetylcholine receptor M1 (Homo sapiens) (UniProt P11229); experiment: Inhibitory activity against Muscarinic acetylcholine receptor M1 using [3H]pirenzepine at […] (M)
[5] = target: D(1A) dopamine receptor (Homo sapiens) (UniProt P21728); experiment: Inhibitory activity against Dopamine receptor D1 using [3H]SCH-23,390 at […] (M)
[6] = target: Thromboxane A2 receptor (Homo sapiens) (UniProt P21731); experiment: Inhibitory activity against Thromboxane A2 using [3H]SG-29548 at 10e-5 (M)
[7] = target: Muscarinic acetylcholine receptor M2 (Homo sapiens) (UniProt P08172); experiment: Inhibitory activity against Muscarinic acetylcholine receptor M2 using [3H]NMS at […] (M)
[8] = target: Cysteinyl leukotriene receptor 1 (Homo sapiens) (UniProt Q9Y271); experiment: Inhibitory activity against Cysteinyl leukotriene D4 receptor using [3H]- LTD4 at […] (M)
[9] = Inhibition of [3H]apamin binding to Potassium channel at 10e-5 M
[10] = target: GABA-A receptor; anion channel (Homo sapiens) (UniProt P14867+P47870+P18507+P28472+P48169+Q99928+Q9UN88+P34903+O00591+O14764+Q8N1C3+P18505+P78334+P47869+P31644+Q16445); experiment: Inhibition of [3H]flunitrazepam binding to GABA-A central Benzodiazepine receptor at 10e-5 M; type: protein-complex assay
[11] = target: T2, Serotonin 3 (5-HT3) receptor (Rattus norvegicus) (UniProt P35563+Q9JJ16); experiment: Agonistic activity of compound towards 5-hydroxytryptamine 3 receptor in Von Bezold-Jarisch Reflex in rats at 120 (ug/kg), evaluated as change in heart rate; type: functional
[12] = Inhibition of [3H]batrachotoxin binding to sodium channel at 10e-5 M
[13] = target: T2, Serotonin 3 (5-HT3) receptor (Rattus norvegicus); experiment: Antagonistic activity of compound towards 5-hydroxytryptamine 3 receptor in Von Bezold-Jarisch reflex in rats at 60 (ug/kg), evaluated as percent inhibition of bradycardia; type: functional
[14] = Inhibition of [3H]PK11195 binding to peripheral Benzodiazepine receptor at 10e-5 M
[15] = target: Adrenergic receptor alpha-1 (Homo sapiens) (UniProt P35348+P25100+P35368); experiment: Inhibitory activity against Alpha-1 adrenergic receptor using [3H]-prazosin at 10e-5 (M); type: protein assay
[16] = target: D(2) dopamine receptor (Homo sapiens) (UniProt P14416); experiment: In vitro displacement from Dopamine receptor D2; conditions: concentration not given here
[17] = target: 5-hydroxytryptamine receptor 1B (Rattus norvegicus, UniProt P28564); experiment: Binding affinity for 5-hydroxytryptamine 1B receptor
[18] = target: 5-hydroxytryptamine receptor 1D (Sus scrofa, UniProt P79400); experiment: Binding affinity for 5-hydroxytryptamine 1D receptor
[19] = target: Glutamate receptor ionotropic AMPA (Homo sapiens) (UniProt P48058+P42263+P42262+P42261); experiment: Inhibitory activity against Quisqualate receptor using [3H]AMPA at […] (M); type: protein-complex assay
[20] = Inhibitory activity against Gamma-aminobutyric acid type B receptor using [3H]GABA at 10e-5 M
[21] = target: Adenosine A2 receptor (Homo sapiens) (UniProt P29275+P29274); experiment: Inhibitory activity against Adenosine A2 receptor using [3H]CGS-21680 at […] (M); type: protein assay
[22] = target: Kappa-type opioid receptor (Homo sapiens) (UniProt P41145); experiment: Inhibitory activity against Opioid receptor kappa 1 using [3H]U-69593 at 10e-7 (M)
[23] = Inhibitory activity against Bradykinin receptor using [3H]bradykinin at […] (M)
[24] = target: Thyrotropin-releasing hormone receptor (Homo sapiens) (UniProt P34981); experiment: Inhibitory activity against TRH using [3H]TRH at 10e-5 (M)
[25] = target: Neuropeptide Y receptor type 1 (Homo sapiens) (UniProt P25929); experiment: Inhibitory activity against Neuropeptide Y receptor type 1 using [3H]-NPY at 10e5 (M)
[26] = target: Insulin receptor (Homo sapiens) (UniProt P06213); experiment: Displacement of [3H]insulin from Insulin receptor at 10e-5 M
[27] = target: Angiotensin II receptor (Homo sapiens) (UniProt P30556+P50052); experiment: Inhibitory activity against Angiotensin II receptor using [3H]Angiotensin II at […] (M); type: protein assay
[28] = target: T3, 5-hydroxytryptamine receptor 2C (Homo sapiens, UniProt P28335); experiment: Binding affinity towards 5-hydroxytryptamine 2C receptor
T3 sequence (P28335 whole entry): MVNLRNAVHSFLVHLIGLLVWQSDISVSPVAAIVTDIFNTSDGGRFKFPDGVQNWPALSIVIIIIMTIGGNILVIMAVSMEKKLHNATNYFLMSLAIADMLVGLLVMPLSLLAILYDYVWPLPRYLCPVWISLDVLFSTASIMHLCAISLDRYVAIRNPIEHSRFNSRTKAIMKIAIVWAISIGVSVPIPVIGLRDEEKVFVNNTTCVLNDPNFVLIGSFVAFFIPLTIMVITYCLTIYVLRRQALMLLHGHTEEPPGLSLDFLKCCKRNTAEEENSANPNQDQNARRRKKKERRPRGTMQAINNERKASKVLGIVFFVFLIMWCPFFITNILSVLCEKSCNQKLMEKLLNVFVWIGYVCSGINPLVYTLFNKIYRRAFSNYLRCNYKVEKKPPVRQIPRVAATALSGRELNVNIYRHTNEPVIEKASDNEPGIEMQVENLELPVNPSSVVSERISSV

[29] = target: Delta-type opioid receptor (Rattus norvegicus) (UniProt P33533); experiment: Inhibitory activity against Opioid receptor delta 1 using [3H]Cl-phe-DPDPE at 10e-5 (M)
Sequence of Delta-type opioid receptor (Rattus norvegicus) (P33533 whole entry): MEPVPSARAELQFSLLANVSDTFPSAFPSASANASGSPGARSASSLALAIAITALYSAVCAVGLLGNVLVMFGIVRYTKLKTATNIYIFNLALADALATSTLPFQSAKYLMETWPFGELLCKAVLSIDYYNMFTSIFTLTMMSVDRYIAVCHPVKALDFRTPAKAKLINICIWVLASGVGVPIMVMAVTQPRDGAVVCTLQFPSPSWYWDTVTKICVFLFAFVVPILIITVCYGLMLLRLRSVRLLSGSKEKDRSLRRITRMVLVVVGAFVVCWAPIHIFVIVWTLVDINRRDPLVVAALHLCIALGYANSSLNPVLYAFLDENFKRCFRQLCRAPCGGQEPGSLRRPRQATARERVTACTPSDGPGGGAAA

Sequence of Thromboxane A2 receptor (Homo sapiens) (P21731 whole entry): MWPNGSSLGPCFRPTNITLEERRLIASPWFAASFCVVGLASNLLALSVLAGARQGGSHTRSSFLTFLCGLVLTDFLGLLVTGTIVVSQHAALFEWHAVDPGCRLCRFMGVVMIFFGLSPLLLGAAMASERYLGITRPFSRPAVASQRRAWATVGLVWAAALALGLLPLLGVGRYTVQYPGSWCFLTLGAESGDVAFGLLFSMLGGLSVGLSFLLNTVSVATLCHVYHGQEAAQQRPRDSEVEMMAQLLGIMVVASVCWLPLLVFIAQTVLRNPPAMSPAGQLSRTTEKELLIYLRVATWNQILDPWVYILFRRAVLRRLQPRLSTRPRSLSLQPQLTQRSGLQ
Sequence of Insulin receptor (Homo sapiens) (P06213 28-758 limits assumed): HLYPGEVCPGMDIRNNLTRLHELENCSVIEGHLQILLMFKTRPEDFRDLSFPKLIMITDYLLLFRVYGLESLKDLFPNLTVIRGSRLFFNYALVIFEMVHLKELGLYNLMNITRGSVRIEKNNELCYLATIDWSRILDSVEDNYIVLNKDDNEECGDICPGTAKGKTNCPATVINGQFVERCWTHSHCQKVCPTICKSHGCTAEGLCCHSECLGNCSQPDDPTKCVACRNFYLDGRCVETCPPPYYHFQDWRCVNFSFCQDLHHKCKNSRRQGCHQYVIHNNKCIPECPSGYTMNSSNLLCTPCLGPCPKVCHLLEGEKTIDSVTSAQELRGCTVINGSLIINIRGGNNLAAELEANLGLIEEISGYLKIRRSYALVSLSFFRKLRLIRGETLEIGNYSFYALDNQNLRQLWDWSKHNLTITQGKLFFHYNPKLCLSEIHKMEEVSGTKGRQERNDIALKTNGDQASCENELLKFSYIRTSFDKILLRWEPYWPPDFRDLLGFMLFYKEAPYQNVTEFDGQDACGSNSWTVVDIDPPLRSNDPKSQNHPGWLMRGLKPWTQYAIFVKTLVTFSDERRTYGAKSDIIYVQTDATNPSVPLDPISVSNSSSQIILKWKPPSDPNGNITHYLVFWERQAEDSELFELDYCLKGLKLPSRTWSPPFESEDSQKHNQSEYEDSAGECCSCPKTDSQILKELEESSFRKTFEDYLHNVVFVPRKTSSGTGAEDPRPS
Sequence of Insulin receptor (Homo sapiens) (P06213 763-1382 limits assumed): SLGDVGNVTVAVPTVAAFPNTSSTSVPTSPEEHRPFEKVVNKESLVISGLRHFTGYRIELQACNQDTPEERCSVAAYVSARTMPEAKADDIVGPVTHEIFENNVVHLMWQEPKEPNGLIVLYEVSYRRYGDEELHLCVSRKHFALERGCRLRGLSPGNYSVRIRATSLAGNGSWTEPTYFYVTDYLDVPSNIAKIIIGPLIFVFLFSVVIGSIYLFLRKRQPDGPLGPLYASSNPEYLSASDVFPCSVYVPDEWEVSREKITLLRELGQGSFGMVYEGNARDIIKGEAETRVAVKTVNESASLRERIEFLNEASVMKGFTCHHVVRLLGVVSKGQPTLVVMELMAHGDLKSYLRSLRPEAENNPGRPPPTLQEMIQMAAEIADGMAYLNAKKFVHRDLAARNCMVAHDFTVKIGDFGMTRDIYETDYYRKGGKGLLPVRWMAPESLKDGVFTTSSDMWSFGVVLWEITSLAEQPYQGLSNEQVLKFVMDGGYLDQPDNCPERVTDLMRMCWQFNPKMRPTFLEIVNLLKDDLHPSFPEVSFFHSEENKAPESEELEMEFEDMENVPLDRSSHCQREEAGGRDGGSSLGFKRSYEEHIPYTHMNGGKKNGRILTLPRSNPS
Sequence of D(1A) dopamine receptor (Homo sapiens) (P21728 whole entry): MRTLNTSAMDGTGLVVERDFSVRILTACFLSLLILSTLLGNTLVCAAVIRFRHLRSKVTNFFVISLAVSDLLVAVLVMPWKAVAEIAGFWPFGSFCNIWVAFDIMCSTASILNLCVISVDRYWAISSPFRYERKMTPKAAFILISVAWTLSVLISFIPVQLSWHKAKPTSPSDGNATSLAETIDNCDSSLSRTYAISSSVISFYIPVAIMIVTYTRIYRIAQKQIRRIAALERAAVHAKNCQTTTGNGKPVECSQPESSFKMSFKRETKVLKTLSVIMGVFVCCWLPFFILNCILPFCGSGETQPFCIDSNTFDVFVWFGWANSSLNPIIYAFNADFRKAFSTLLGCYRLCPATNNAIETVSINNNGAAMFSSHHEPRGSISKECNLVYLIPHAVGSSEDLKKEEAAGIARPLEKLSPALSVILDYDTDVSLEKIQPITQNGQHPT
Sequence of Muscarinic acetylcholine receptor M2 (Homo sapiens) (P08172 whole entry): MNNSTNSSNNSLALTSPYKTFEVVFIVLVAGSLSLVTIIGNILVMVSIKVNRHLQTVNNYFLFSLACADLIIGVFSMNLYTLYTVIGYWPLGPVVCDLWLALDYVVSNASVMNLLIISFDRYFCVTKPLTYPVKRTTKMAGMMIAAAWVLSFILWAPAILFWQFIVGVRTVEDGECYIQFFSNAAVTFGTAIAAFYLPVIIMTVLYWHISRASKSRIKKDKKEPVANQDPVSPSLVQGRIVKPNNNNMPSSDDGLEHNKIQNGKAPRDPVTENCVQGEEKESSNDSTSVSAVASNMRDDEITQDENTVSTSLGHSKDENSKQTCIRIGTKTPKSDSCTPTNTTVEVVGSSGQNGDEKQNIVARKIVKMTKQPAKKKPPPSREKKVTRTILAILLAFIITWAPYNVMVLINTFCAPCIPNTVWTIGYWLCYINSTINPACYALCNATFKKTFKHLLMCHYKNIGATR
Sequence of Cysteinyl leukotriene receptor 1 (Homo sapiens) (Q9Y271 whole entry): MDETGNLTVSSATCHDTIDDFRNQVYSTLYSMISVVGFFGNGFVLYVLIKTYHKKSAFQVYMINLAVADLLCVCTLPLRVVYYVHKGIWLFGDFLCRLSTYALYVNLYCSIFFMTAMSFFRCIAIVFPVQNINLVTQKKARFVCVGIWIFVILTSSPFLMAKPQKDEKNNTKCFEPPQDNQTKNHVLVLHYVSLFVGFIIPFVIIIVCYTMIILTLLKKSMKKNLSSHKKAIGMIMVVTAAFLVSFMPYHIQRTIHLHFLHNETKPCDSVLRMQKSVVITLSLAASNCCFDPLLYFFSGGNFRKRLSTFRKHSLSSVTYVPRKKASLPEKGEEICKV
Sequence of Muscarinic acetylcholine receptor M1 (Homo sapiens) (P11229 whole entry): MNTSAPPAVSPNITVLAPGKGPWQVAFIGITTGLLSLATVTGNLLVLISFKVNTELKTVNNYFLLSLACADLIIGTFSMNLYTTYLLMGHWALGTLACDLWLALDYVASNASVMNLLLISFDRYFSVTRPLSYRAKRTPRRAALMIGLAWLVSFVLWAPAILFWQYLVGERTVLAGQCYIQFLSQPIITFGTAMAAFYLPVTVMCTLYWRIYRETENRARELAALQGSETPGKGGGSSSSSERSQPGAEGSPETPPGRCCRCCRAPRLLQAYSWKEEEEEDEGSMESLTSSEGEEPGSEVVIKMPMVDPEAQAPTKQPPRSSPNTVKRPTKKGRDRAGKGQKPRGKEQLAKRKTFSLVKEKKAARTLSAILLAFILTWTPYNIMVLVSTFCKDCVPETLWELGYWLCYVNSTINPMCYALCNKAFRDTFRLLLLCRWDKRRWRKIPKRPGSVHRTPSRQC
Sequence of 5-hydroxytryptamine receptor 1B (P28564 whole entry): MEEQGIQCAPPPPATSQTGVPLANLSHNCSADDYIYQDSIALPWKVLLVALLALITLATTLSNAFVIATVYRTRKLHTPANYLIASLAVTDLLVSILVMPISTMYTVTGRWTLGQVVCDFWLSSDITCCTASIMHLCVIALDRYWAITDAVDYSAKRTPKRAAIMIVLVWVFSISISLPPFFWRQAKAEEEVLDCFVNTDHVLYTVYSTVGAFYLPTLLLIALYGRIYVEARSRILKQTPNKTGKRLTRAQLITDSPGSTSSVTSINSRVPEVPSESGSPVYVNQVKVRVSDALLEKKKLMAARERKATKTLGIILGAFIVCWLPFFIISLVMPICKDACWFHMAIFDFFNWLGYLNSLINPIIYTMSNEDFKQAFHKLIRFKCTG
Sequence of Beta-2 adrenergic receptor (Homo sapiens) (P07550 whole entry, looked up): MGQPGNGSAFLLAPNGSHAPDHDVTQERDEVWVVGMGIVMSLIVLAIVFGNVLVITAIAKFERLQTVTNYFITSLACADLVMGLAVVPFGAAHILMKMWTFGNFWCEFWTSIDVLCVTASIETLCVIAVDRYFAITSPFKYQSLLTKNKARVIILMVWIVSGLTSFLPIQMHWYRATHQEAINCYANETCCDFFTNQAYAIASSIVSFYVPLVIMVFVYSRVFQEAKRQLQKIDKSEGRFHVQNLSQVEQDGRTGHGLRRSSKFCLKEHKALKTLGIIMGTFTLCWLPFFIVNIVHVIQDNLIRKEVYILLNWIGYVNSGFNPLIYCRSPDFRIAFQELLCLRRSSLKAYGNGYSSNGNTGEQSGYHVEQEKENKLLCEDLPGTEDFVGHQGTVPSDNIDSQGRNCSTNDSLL
Sequence of Kappa-type opioid receptor (Homo sapiens) (P41145 whole entry): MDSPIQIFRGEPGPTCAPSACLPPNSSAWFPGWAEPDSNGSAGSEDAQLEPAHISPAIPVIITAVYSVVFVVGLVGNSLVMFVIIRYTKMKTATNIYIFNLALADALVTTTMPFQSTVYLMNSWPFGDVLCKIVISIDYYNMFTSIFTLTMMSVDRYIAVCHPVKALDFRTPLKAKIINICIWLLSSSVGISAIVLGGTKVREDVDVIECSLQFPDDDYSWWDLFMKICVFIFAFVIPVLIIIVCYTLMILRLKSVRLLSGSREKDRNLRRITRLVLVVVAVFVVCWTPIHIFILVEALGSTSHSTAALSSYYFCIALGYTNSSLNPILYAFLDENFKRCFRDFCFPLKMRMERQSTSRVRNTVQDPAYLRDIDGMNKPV

SMILES: c1ccc(CN2CCN(c3nc4ccsc4n4cccc34)CC2)cc1
- inhibition [1]: 23%
- inhibition [2]: 19%
- IC50 [3]: 0.398 µM
- inhibition [4]: 29%
- inhibition [5]: 14%
- inhibition [6]: 32%
- inhibition [7]: 5%
- inhibition [8]: 1%
- inhibition [9]: 6%
- inhibition [10]: 5%
- Change [11]: 42%
- inhibition [12]: 79%
- Change [13]: 40%
- inhibition [14]: 34%
- inhibition [15]: 26%
- inhibition [16]: 5%
- IC50 [17]: 1.02 µM
- IC50 [18]: 14.1 µM
- inhibition [19]: 24%
- inhibition [20]: 40%
- inhibition [21]: 4%
- inhibition [22]: 10%
- inhibition [23]: 28%
- inhibition [24]: 12%
- inhibition [25]: 4%
- inhibition [26]: 15%
- inhibition [27]: 18%
- IC50 [28]: 1.86 µM
- inhibition [29]: 14%

From ChEMBL document CHEMBL1129317, “Novel selective and partial agonists of 5-HT3 receptors. Part 1. Synthesis and biological evaluation of piperazinopyrrolothienopyrazines” (J Med Chem, 1996)
